Measurements as given in PubChem BioAssay (NCI).
Several values for one entry are separate records, joined by “and”; a condition that tells them apart may be missing. Equal values may be shown once.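 A five-concentration, 48-hour dose response in 96-well plates underlies each endpoint, interpolated linearly between surrounding concentrations. GI50 = concentration required for 50% inhibition of growth. TGI marks complete inhibition of growth.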

How the values were obtained:
Assay in all cases: DTP human tumour cell line panel, 48 h
[1] = system: UACC-62 melanoma
[2] = system: KM12 colon
[3] = system: HOP-62 NSCLC
[4] = system: SK-OV-3 ovarian
[5] = system: OVCAR-5 ovarian
[6] = system: ACHN renal
[7] = system: IGROV1 ovarian
[8] = system: SW-620 colon
[9] = system: MALME-3M melanoma
[10] = system: A549 NSCLC

Structure (SMILES) | GI50 [1] [µM] | TGI [1] [µM] | GI50 [2] [µM] | TGI [2] [µM] | GI50 [3] [µM] | TGI [3] [µM] | GI50 [4] [µM] | TGI [4] [µM] | GI50 [5] [µM] | TGI [5] [µM] | GI50 [6] [µM] | TGI [6] [µM] | GI50 [7] [µM] | TGI [7] [µM] | GI50 [8] [µM] | TGI [8] [µM] | GI50 [9] | TGI [9] [µM] | GI50 [10] [µM] | TGI [10] [µM]
COc1ccc(-c2ccc(OC)c(OC)c2OC)cc1 | 3.29 | > 100 | 0.767 | > 51.8 | 2.87 | > 100 | 2.63 | 62 | 8.66 | > 100 | 8 | > 100 | 4.08 | > 100 | 0.528 | > 100 | 9.53 µM | > 100 | 5.74 | > 100
c1ccc2c(c1)[nH]c1c2nc2ccccn21 |  | > 100 |  | > 100 |  | > 100 |  | > 100 |  | > 100 |  | > 100 |  | > 100 |  | > 100 | 27.8 µM and > 100 µM | > 100 |  | > 100
O=C1c2ccccc2-c2nc3ccncc3n21 |  | > 100 |  | > 100 |  | > 100 |  | > 100 |  | > 100 |  | > 100 |  | > 100 |  | > 100 |  | > 100 |  | > 100
COc1cccc2c1C(=O)c1c(O)c3c(c(O)c1C2=O)C[C@@](O)(C(C)=O)CC3OC1CC(OC2CC(N)C(O)C(C)O2)C(O)C(C)O1 (stereo partly specified) |  | > 100 |  | > 100 |  | > 100 |  | > 100 |  | > 100 |  | > 100 |  | > 100 |  | > 100 |  | > 100 |  | > 100
Cc1c(C)c([N+](=O)[O-])c2c(c1N)C(=O)c1ccccc1C2=O |  | > 100 |  | > 100 |  | > 100 |  | > 100 |  | > 100 |  | > 100 |  | > 100 |  | > 100 |  | > 100 |  | > 100
Cn1c(COC(=O)NCCn2ccnc2)nc2c(N3CCOCC3)nc(-c3ccccc3)nc21 | 1.23 | 2.5 | 1.43 | 3.06 | 1.54 | 3.9 | 3.63 | 10.6 | 1.39 | 3.01 | 0.353 | 1.31 | 0.657 | 1.94 | 0.226 | 0.58 | 1.38 µM | 2.72 | 1.43 | 3.38
O=C1NC(=NCCc2ccc(Cl)cc2)S/C1=C\c1ccc2ncccc2c1 | 17.4 | > 25 | > 23 | > 25 | 14.3 | > 25 | 17.5 | > 25 | > 25 | > 25 | 24.6 | > 25 | 17.6 | > 25 | 14.2 | > 25 | > 25 µM | > 25 | 15 | > 25
CCOC(=O)Nc1ccc2nc(-c3cscn3)[nH]c2c1 | 4.08 | > 100 | 2.05 | > 100 | 4.91 | > 100 | 3.61 | 29.8 | 26.9 | > 100 | 8.45 | > 100 | 6.3 | > 100 | 2.95 | > 100 | 1.75 µM | > 100 | 5.99 | > 100
CC(C)(C)C[C@H]1N[C@@H](C(=O)NC2CCC(O)CC2)[C@H](c2cccc(Cl)c2F)[C@@]12C(=O)Nc1cc(Cl)ccc12 (stereo partly specified) | 0.235 | 2.46 | 6.85 | 22.1 | 11.5 | 27.7 | 11.2 | 23.8 | 3.88 | 15.2 | 0.375 | 10.1 | 2.07 | 16.7 | 12.3 | 29.4 | 0.131 µM | 3.98 | 0.778 | 16.4
Cn1c(COC(=O)NCCc2ccccn2)nc2c(N3CCOCC3)nc(Cl)nc21 | 1.65 | 3.29 | 1.8 | 4.75 | 1.65 | 4.88 | 12 | 24.3 | 1.73 | 3.68 | 1.27 | 2.57 | 1.31 | 2.84 | 1.28 | 2.98 | 1.77 µM | 3.38 | 1.85 | 5.96
CCC[CH2][Sn-]([CH2]CCC)([CH2]CCC)[O]C(=O)C(C)C | 0.2 | 0.424 | 0.0347 | 0.145 | 0.157 | 0.297 | 0.151 | 0.293 | 0.107 | 0.262 | 0.142 | 0.273 | 0.166 | 0.324 | 0.124 | 0.272 | 0.0229 µM | 0.204 | 0.13 | 0.267
COC1(OC)C2(Cl)C3=CCCC=C3C1(Cl)C(Cl)=C2Cl |  | > 100 |  | > 100 |  | 71.1 |  | 72.6 |  | 83.9 |  | > 100 |  | > 100 |  | 36.9 |  | 49.2 |  | > 100
Cc1cccc(C)c1NC(=O)C(=O)Cc1nc2ccccc2s1 |  | > 100 |  | > 100 |  | > 100 |  | > 100 |  | > 100 |  | > 100 |  | > 100 |  | > 100 |  | > 100 |  | > 100
OCc1ccc(N(Cc2ccc(F)cc2)Cc2ccc(F)cc2)cc1Cl | 2.61 | 13.7 | 10.5 | 23.8 | 10.9 | 23.2 | 13.6 | 26.5 | 2.11 | 11.9 | 10.9 | 23 | 2.08 | 8.07 | 6.21 | 20.7 | 18.4 µM | 35.4 | 6.72 | 22.1
Clc1ccccc1C(Nc1cnccn1)Nc1cnccn1 |  | > 100 |  | > 100 |  | > 100 |  | > 100 |  | > 100 |  | > 100 |  | > 100 |  | > 100 |  | > 100 |  | > 100
